Assay results as given in patent publication US20230000842A1, “METHODS OF TREATING CARTILAGE DISORDERS THROUGH INHIBITION OF CLK AND DYRK” (SAMUMED, LLC, priority 2019, published 2023).

Experiments:
CLK2 kinase = CLK2 kinase (Homo sapiens, UniProt P49760); assay: CLK2 kinase activity assay (Z-lyte FRET); type: biochemical; conditions: Z-lyte Ser/Thr 6 peptide, 60 μM ATP, 1 h at room temperature;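 also: FRET read-out as coumarin to fluorescein emission ratio, unphosphorylated peptide as 0% and phosphorylated peptide as 100% controls, duplicate reactions, non-linear regression fit of dose-response curves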
Sequence of CLK2 kinase (P49760 whole entry): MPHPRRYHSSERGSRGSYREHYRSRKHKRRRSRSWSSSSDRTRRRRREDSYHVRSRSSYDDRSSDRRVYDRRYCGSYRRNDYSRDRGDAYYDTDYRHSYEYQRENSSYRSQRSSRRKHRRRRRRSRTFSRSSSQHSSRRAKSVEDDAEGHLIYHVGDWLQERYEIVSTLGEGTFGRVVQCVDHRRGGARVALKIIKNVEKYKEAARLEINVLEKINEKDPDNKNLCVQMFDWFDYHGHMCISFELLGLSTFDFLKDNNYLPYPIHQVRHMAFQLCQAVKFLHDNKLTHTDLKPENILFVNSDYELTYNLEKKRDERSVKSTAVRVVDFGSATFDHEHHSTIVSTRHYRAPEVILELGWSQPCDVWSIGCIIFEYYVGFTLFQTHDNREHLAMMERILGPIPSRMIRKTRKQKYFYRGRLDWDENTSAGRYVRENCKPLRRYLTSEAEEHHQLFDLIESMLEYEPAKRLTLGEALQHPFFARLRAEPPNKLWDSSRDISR

[1] = system: Wnt pathway activity (SW480 colon carcinoma cells stably expressing the Sp5-Luc reporter); assay: Wnt pathway activity screening assay (Sp5-Luc reporter gene assay); conditions: Homo sapiens, SW480, Table 4; SW480 cells stably expressing Sp5-Luc reporter, 10-point dose-response from 10 μM, 36 to 48 hours
[2] = system: MMP-3 levels in supernatant of chondrocytes stimulated with IL1-β; assay: Chondrocyte protection assay compound screening (MMP-3 LANCE Ultra); type: cell-based, human; conditions: Homo sapiens, Chondrocyte, IL1-β 10 ng/mL overnight, 11-point curves from 3 μM to 0.05 nM; for Emax: read-out: Maximum % Inhibition
Method in brief: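 Primary human chondrocytes (passage 2–5) in differentiation medium were stimulated with 10 ng/mL IL1-β for an overnight incubation at 37 °C. MMP-3 in 1:7-diluted supernatant was read by TR-FRET immunoassay against a standard curve, normalised to IL1-β-stimulated wells; EC50 and maximum % inhibition came from nonlinear regression.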

[3] = system: primary human mesenchymal stem cells (hMSCs); assay: Chondrogenesis screening using primary human mesenchymal stem cells; type: cell-based; conditions: Homo sapiens, Mesenchymal stem cells, hMSC chondrogenesis; for Emax: maximum activity relative to TGF-β3 (10 ng/mL) positive control, read-out: Max. Activity as % TGF-β3 activity; for EC50: concentration required to induce 50% levels of chondrogenesis with TGF-β3 as positive control, read-out: Conc (nM) of 50% TGF-β3 activity
Method in brief: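 Derived values are EC50 for 50% chondrogenesis, maximal activity and the dose giving it. These come from nodule area in passage 3–6 primary hMSCs, expressed as fold change over the mean of 3 same-plate DMSO wells, 2–3 replicates per concentration. TGF-β3 served as positive control.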

CLK3 kinase = CLK3 kinase (Homo sapiens, UniProt P49761); assay: CLK3 kinase activity assay (Z-lyte FRET); type: biochemical; conditions: Z-lyte Ser/Thr 18 peptide, 156 μM ATP, 1 h at room temperature;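 also: kinase activity read as coumarin/fluorescein emission ratio by FRET, unphosphorylated peptide as 0% and phosphorylated peptide as 100% control, values from non-linear regression of dose-response curves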
Sequence of CLK3 kinase (P49761 whole entry): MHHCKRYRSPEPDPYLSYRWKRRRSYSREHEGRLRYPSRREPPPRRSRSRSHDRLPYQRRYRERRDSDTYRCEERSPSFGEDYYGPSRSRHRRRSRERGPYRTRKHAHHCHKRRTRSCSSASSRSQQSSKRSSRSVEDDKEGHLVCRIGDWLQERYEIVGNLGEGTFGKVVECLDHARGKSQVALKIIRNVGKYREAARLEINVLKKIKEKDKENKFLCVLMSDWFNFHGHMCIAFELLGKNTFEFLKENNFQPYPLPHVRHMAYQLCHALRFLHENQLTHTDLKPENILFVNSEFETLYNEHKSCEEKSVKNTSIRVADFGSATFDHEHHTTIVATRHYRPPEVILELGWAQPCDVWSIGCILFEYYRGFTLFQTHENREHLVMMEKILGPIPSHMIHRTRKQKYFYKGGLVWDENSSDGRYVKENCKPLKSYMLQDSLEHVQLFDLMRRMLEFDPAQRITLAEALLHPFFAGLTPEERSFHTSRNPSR
Description: This is a non-radioactive assay using fluorescence resonance energy transfer (FRET) between coumarin and fluorescein to detect kinase activity which is represented as a ratio of coumarin emission/fluorescein emission.
The mixture was allowed to incubate with the representative compounds for one hour at room temperature. All reactions were performed in duplicate. Unphosphorylated (“0% Control”) and phosphorylated (“100% control”) forms of Ser/Thr 18 served as control reactions. Additionally, an 11-point dose-response curve of Staurosporine (1 μM top) was run to serve as a positive compound control.
After incubation, Development Reagent A was diluted in Development Buffer then added to the reaction and allowed to further incubate for one hour at room temperature.
Dose-response curves were generated and inhibitory concentration (IC50) values were calculated using non-linear regression curve fit in the Dotmatics' Studies Software (Bishops Stortford, UK).

EC50 (CLK2 kinase) [nM]	EC50 [1] [nM]	EC50 (CLK3 kinase) [nM]	EC50 [3] [nM]	Compound	EC50 [2] [nM]	Emax [2] [%]	Emax [3] [%]
2	> 10000	48		O=C(CC1CCNCC1)Nc1cncc(-c2ccc3[nH]nc(-c4cc5c(N6CCCCC6)nccc5[nH]4)c3n2)c1 [compound 462]	1470	99.9	21.8
3	3290	142		CN1CCN(c2cncc3[nH]c(-c4n[nH]c5ccc(-c6cncc(CNCc7ccccc7)c6)cc45)cc23)CC1 [compound 490]	329	80.2	101
2	> 10000	51		CCNCc1cncc(-c2cnc3[nH]nc(-c4cc5c(-c6cc(F)cc(CNS(C)(=O)=O)c6)cncc5[nH]4)c3c2)c1 [compound 533]	≥ 3000	40.8	42.8
1	9.5	11	2700	O=C(Nc1cc2cc(-c3cncc(NC4CCNC[C@@H]4F)n3)ccc2cn1)C1CC1 (stereo partly drawn) [compound 603]	≥ 3000	55.5	68
2	51.8	29	50	O=C1CCc2cccc(c2)-c2cncc3[nH]c(nc23)-c2n[nH]c3ccc(cc23)-c2cncc(c2)N1 [compound 619]	≥ 3000	71.5	225
3	86.8	16	100	O=C1COc2cccc(c2)-c2cncc3[nH]c(nc23)-c2n[nH]c3ccc(cc23)-c2cncc(c2)N1 [compound 620]	37.4	37.1	185
3	338	26	10	CN1CCCn2cc(nn2)-c2nccc3[nH]c(nc23)-c2n[nH]c3ccc(cc23)-c2cncc(c2)C1 [compound 621]	≥ 3780	46.5	181
5	> 10000	36	30	O=C1CCc2cccc(c2)-c2cncc(c2)NC(=O)c2n[nH]c3ccc(cc23)-c2cncc(c2)CN1 [compound 622]	10	83.8	69.4
2	284	10	30	CN1CCN(c2cc(Nc3ncc4c(-c5ccc6ncccc6c5)c[nH]c4n3)ccn2)CC1 [compound 623]	≥ 9980	89.5	73.4
